Structures can show the parent of a compound that is named as a salt. Where two headings read alike, the source gives them in different places.
Columns and labels:
Assay in all cases: In vitro antibacterial activity (MIC)
Type in all cases: cell-based
S. marcescens S4 = details: Serratia marcescens, S4, S. marcescens S4; read-out: MIC
Description: (§1) Drug dilutions are prepared in Mueller-Hinton broth ranging from 128 to 0.008 μg/ml. The diluted agents are dispensed in 100 μl amounts into the wells of a 96-well tray and used immediately or frozen at -10° to -70° C. until needed. Using an automated inoculator, 1.5 μl of a 10^-2 dilution of an overnight culture is added to each well of the tray. The tops of the trays are then sealed using transparent tape and incubated overnight at 37° C. The trays are examined with the aid of a viewer. The lowest concentration at which no growth is observed is considered to be the minimum inhibitory concentration (MIC).

S. marcescens S5 = details: Serratia marcescens, S5, S. marcescens S5; read-out: MIC
Description: as §1

S. marcescens 5805 = details: Serratia marcescens, 5805, S. marcescens 5805; read-out: MIC
Description: as §1

S. marcescens S2 = details: Serratia marcescens; S. marcescens S2; read-out: MIC
Description: as §1

S. marcescens S714 = details: Serratia marcescens, S714, S. marcescens S714; read-out: MIC
Description: as §1

S. marcescens SM = details: Serratia marcescens, read-out: MIC
Description: as §1

E. cloacae 9570A = details: Enterobacter cloacae
Description: as §1

E. aerogenes 83 = system: E. aerogenes 83
Description: as §1

S. aureus Smith = details: Staphylococcus aureus, S. aureus Smith; read-out: MIC
Description: as §1

E. coli 4 = details: Escherichia coli, 4, E. coli 4; read-out: MIC
Description: as §1

E. aerogenes 503-478 = details: Klebsiella aerogenes, 503478, E. aerogenes 503-478; read-out: MIC
Description: as §1

K. pneumoniae 503-994 = details: Klebsiella pneumoniae, 503994, K. pneumoniae 503-994; read-out: MIC
Description: as §1

S. faecalis C1 = details: Enterococcus faecalis; S. faecalis C1; read-out: MIC
Description: as §1

P. vulgaris 101 = details: Proteus vulgaris, 101, P. vulgaris 101; read-out: MIC
Description: as §1

S. pyogenes 503-782 = details: Streptococcus pyogenes, 503782; S. pyogenes 503-782; read-out: MIC
Description: as §1

P. vulgaris 100 = details: Proteus vulgaris
Description: as §1

K. pneumoniae 8357 = system: K. pneumoniae 8357
Description: as §1

K. pneumoniae 4964 = system: K. pneumoniae 4964
Description: as §1

E. coli 387-1 = details: Escherichia coli, 3871, E. coli 387-1; read-out: MIC
Description: as §1

P. aeruginosa B = details: Pseudomonas aeruginosa, read-out: MIC
Description: as §1

E. coli 503-455 = system: E. coli 503-455
Description: as §1

P. aeruginosa POW 151 = details: Pseudomonas aeruginosa, POW151
Description: as §1

K. pneumoniae 503-964 = system: K. pneumoniae 503-964
Description: as §1

E. cloacae 214 = details: Enterobacter cloacae, 214, E. cloacae 214; read-out: MIC
Description: as §1

P. mirabilis 620A = details: Proteus mirabilis, 620A, P. mirabilis 620A; read-out: MIC
Description: as §1

S. marcescens S147 = details: Serratia marcescens; S. marcescens S147; read-out: MIC
Description: as §1

E. aerogenes 8 = system: E. aerogenes 8
Description: as §1

P. aeruginosa 5712 = details: Pseudomonas aeruginosa; P. aeruginosa 5712; read-out: MIC
Description: as §1

C. diversus CDC 1663-72 = details: Citrobacter koseri, CDC166372
Description: as §1

K. pneumoniae HE7 = details: Klebsiella pneumoniae; K. pneumoniae HE7; read-out: MIC
Description: as §1

P. aeruginosa 503-820 = details: Pseudomonas aeruginosa, 503820; P. aeruginosa 503-820; read-out: MIC
Description: as §1

S. schottmuelleri = details: read-out: MIC
Description: as §1

S. aureus 1059B = details: Staphylococcus aureus, read-out: MIC
Description: as §1

S. marcescens S1 = details: Serratia marcescens, S1, S. marcescens S1; read-out: MIC
Description: as §1

P. aeruginosa 5700 = details: Pseudomonas aeruginosa, 5700, P. aeruginosa 5700; read-out: MIC
Description: as §1

K. pneumoniae 35 = system: K. pneumoniae 35
Description: as §1

P. mirabilis 2 = system: P. mirabilis 2
Description: as §1

P. aeruginosa Stone 130 = details: Pseudomonas aeruginosa, STONE130, read-out: MIC
Description: as §1

E. cloacae 9295 = system: E. cloacae 9295
Description: as §1

P. aeruginosa 6148B = details: Pseudomonas aeruginosa, read-out: MIC
Description: as §1

E. coli 5152 = system: E. coli 5152
Description: as §1

E. cloacae 6951 = system: E. cloacae 6951
Description: as §1

E. coli 48 = details: Escherichia coli, 48, E. coli 48; read-out: MIC
Description: as §1

P. aeruginosa 8780 = details: Pseudomonas aeruginosa; P. aeruginosa 8780; read-out: MIC
Description: as §1

[1] = Escherichia coli, 503455, E. coli 503-455, read-out: MIC
[2] = Klebsiella aerogenes, E. aerogenes 8, read-out: MIC
[3] = C. diversus CDC 1663-72, read-out: MIC
[4] = Klebsiella pneumoniae, K. pneumoniae 35, read-out: MIC
[5] = Enterobacter cloacae, 9295, E. cloacae 9295, read-out: MIC
[6] = Escherichia coli, 5152, E. coli 5152, read-out: MIC
[7] = Enterobacter cloacae, 6951, E. cloacae 6951, read-out: MIC
[8] = Klebsiella pneumoniae, 503964, K. pneumoniae 503-964, read-out: MIC
[9] = Proteus mirabilis, 2, P. mirabilis 2, read-out: MIC

Measured: MIC

Cc1nccn1CCCC1CCN(C=N[C@@H]2C(=O)N3[C@@H]2SC(C)(C)[C@@H]3C(=O)O)CC1 [F, [2S-(2alpha,5alpha,6beta)]-3,3-dimethyl-6-[[[4-[3-(2-methyl-1H-imidazol-1-yl)propyl]-1-piperidinyl]methylene]amino]-7-oxo-4-thia-1-azabicyclo[3.2.0]heptane-2-carboxylic acid 1.15 molar hydrochloride 1.75 molar hydrate]
> 128 µg/mL: P. aeruginosa POW 151 | P. aeruginosa 5712 | K. pneumoniae HE7 | P. aeruginosa 503-820 | P. aeruginosa Stone 130 | P. aeruginosa 6148B
1 µg/mL: S. marcescens S5 | S. marcescens S714 | K. pneumoniae 8357; Klebsiella pneumoniae, 8357
64 µg/mL: S. aureus 1059B
32 µg/mL: K. pneumoniae 4964; Klebsiella pneumoniae, 4964 | E. aerogenes 8; [2]
0.062 µg/mL: E. coli 4 | C. diversus CDC 1663-72; [3] | S. schottmuelleri | E. coli 48
0.5 µg/mL: S. marcescens 5805 | S. marcescens S1 | P. aeruginosa 5700 | P. mirabilis 2; Proteus mirabilis, 2
128 µg/mL: S. faecalis C1 | S. pyogenes 503-782
> 12 µg/mL: P. aeruginosa 8780
4 µg/mL: E. aerogenes 503-478 | K. pneumoniae 503-964; Klebsiella pneumoniae, 503964, K. pneumoniae 503-964
8 µg/mL: S. aureus Smith | E. coli 5152; [6] | E. cloacae 6951; [7]
2 µg/mL: S. marcescens S4 | K. pneumoniae 503-994 | E. coli 503-455; [1]
0.125 µg/mL: S. marcescens SM | E. coli 387-1 | E. cloacae 214 | K. pneumoniae 35; [4]
0.25 µg/mL: S. marcescens S2 | E. cloacae 9570A; 9570A | P. aeruginosa B | S. marcescens S147 | E. cloacae 9295; [5]
16 µg/mL: E. aerogenes 83; Klebsiella aerogenes, 83 | P. vulgaris 101 | P. vulgaris 100; P. vulgaris 100, read-out: MIC | P. mirabilis 620A

CCc1nc(C)cn1CCCC1CCN(C=N[C@@H]2C(=O)N3[C@@H]2SC(C)(C)[C@@H]3C(=O)O)CC1 [G, [2S-(2alpha,5alpha,6beta)]-6-[[[4-[3-(2-ethyl-4methyl-1H-imidazol-1-yl)propyl]piperidinyl]methylene]amino]-3,3-dimethyl-7-oxo-4-thia-1-azabicyclo[3.2.0]heptane-2-carboxylic acid hydrochloride]
> 128 µg/mL: P. aeruginosa POW 151 | P. aeruginosa 5712 | K. pneumoniae HE7 | P. aeruginosa 503-820 | P. aeruginosa Stone 130 | P. aeruginosa 6148B | P. aeruginosa 8780
0.062 µg/mL: K. pneumoniae 503-964; [8] | E. coli 48
8 µg/mL: S. marcescens S714 | S. aureus Smith | E. aerogenes 503-478
1 µg/mL: S. marcescens S2 | S. marcescens SM | K. pneumoniae 8357; Klebsiella pneumoniae, 8357 | S. marcescens S147 | S. marcescens S1 | P. aeruginosa 5700 | P. mirabilis 2; [9]
16 µg/mL: P. vulgaris 101 | E. aerogenes 8; [2] | E. coli 5152; Escherichia coli, 5152 | E. cloacae 6951; [7]
0.5 µg/mL: E. cloacae 9570A; read-out: MIC | E. aerogenes 83; Klebsiella aerogenes, 83, E. aerogenes 83, read-out: MIC | K. pneumoniae 35; Klebsiella pneumoniae, 35, K. pneumoniae 35 | E. cloacae 9295; [5]
0.125 µg/mL: C. diversus CDC 1663-72 | S. schottmuelleri
32 µg/mL: P. vulgaris 100; 100
64 µg/mL: P. mirabilis 620A
2 µg/mL: S. marcescens S4 | S. marcescens S5 | K. pneumoniae 4964; Klebsiella pneumoniae, 4964
128 µg/mL: S. faecalis C1 | S. pyogenes 503-782 | S. aureus 1059B
0.25 µg/mL: E. coli 4 | K. pneumoniae 503-994 | E. coli 387-1 | P. aeruginosa B | E. cloacae 214
4 µg/mL: S. marcescens 5805 | E. coli 503-455; [1]

CC1(C)S[C@@H]2[C@H](N=CN3CCC(Cn4ccnc4N)CC3)C(=O)N2[C@H]1C(=O)O [H, [2S-(2alpha,5alpha,6beta)]-6-[[[4-[(2-amino-1H-imidazol-1-yl)methyl-1-piperidinyl]methylene]amino]-3,3-dimethyl-7-oxo-4-thia-1-azabicyclo[3.2.0]heptane-2-carboxylic acid hydrochloride]
0.125 µg/mL: S. marcescens SM | K. pneumoniae 503-994 | K. pneumoniae 8357; Klebsiella pneumoniae, 8357, K. pneumoniae 8357, read-out: MIC | E. coli 387-1 | K. pneumoniae 503-964; [8] | E. cloacae 214 | S. marcescens S1 | P. aeruginosa 5700
32 µg/mL: E. aerogenes 8; Klebsiella aerogenes, 8, E. aerogenes 8
64 µg/mL: S. faecalis C1 | S. pyogenes 503-782 | K. pneumoniae 4964; Klebsiella pneumoniae, 4964, K. pneumoniae 4964, read-out: MIC | P. aeruginosa 503-820 | P. aeruginosa 6148B
0.5 µg/mL: S. marcescens S4 | S. marcescens S5 | S. marcescens 5805 | P. aeruginosa B | E. cloacae 9295; Enterobacter cloacae, 9295
4 µg/mL: P. vulgaris 100; P. vulgaris 100, read-out: MIC | E. cloacae 6951; Enterobacter cloacae, 6951
8 µg/mL: S. aureus Smith | E. aerogenes 503-478 | P. vulgaris 101 | E. coli 5152; [6]
0.062 µg/mL: S. marcescens S2 | E. coli 4 | C. diversus CDC 1663-72; [3] | S. schottmuelleri | E. coli 48
0.031 µg/mL: S. marcescens S147
0.25 µg/mL: S. marcescens S714 | E. cloacae 9570A; read-out: MIC | K. pneumoniae 35; [4] | P. mirabilis 2; [9]
1 µg/mL: E. coli 503-455; Escherichia coli, 503455
> 128 µg/mL: P. aeruginosa POW 151 | P. aeruginosa Stone 130 | P. aeruginosa 8780
128 µg/mL: P. aeruginosa 5712 | K. pneumoniae HE7 | S. aureus 1059B
16 µg/mL: E. aerogenes 83; Klebsiella aerogenes, 83 | P. mirabilis 620A

Reference: US4605744A, “Imidazole derivatives” (Hoffmann-La Roche Inc., priority 1985, dated 1986)
